Experimental data reported in US12522597B2, “Methods and compositions for modulating splicing” (Skyhawk Therapeutics, Inc., priority 2019, dated 2026).
Read-outs that look alike come from different tables or passages of the source.

Columns and labels:
mHTT protein = mHTT protein assay (2B7-MW1, Mesoscale Discovery); assay type: cell-based, human; conditions: GM04724 (CAG 70/20) Huntington's disease patient lymphoblast cells, 48 hours, 2B7-MW1 MSD; read-out: HTT Potency - Protein EC50 mHTT (average)
Procedure, shortened: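 mHTT levels were read with the 2B7-MW1 antibody pair (N17 and polyQ epitopes) on MSD after 48 h dosing, 10 μM–0.6 nM. Cells were GM04724 HD lymphoblasts (CAG 70/20). A replica plate was read by CTG for cell viability.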

[1] = test system: MDR1-MDCK cell monolayers; test: MDCK-MDR1 permeability assay (BBB penetration potential); assay type: in vitro ADME; conditions: dog, MDCK-MDR1, 120 min, 5 μM, pH 7.4
Method: (§1) Each determination is performed in duplicate. […] Analytical conditions are outlined below.

MDR1 = test: as above; assay type: in vitro ADME; conditions: dog; for efflux ratio at 120 min, 5 μM: MDCK-MDR1, pH 7.4, MDCK-MDR1: Efflux; for Papp A→B at 120 min, 5 μM: MDCK-MDR1, pH 7.4, MDCK-MDR1: Papp A-B; for Papp B→A at 120 min, 5 μM: MDCK-MDR1, pH 7.4, MDCK-MDR1: Papp B-A
Method: as §1

[2] = test system: Huntingtin (HTT) transcripts; test: Quantitative splicing assay (HTT), qPCR; assay type: cell-based; conditions: Homo sapiens, GM04724 (CAG 70/20) Huntington's disease patient lymphoblasts, 24 h
Procedure, shortened: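 Read-out is TaqMan qPCR on cDNA, quantifying inclusion of a cryptic exon within HTT intron 49. Cells were Huntington's patient lymphoblasts GM04724 (CAG 70/20), treated for 24 h at 0.15 nM–2.5 uM compound in 0.1% DMSO.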

[3] = qPCR HTTex49_50, read-out: HTT Potency - Splicing: E49-50 EC50 (average)
[4] = qPCR cryptic exon 49b inclusion, read-out: HTT Potency - Splicing: E49b EC50 (average)

Compound	EC50 (mHTT protein) [nM]	MDCK-MDR1: % Recov A-B [1] [%]	MDCK-MDR1: % Recov B-A [1] [%]	efflux ratio at 120 min, 5 μM (MDR1)	Papp A→B at 120 min, 5 μM (MDR1) [×10⁻⁶ cm/s]	Papp B→A at 120 min, 5 μM (MDR1) [×10⁻⁶ cm/s]	EC50 [2, 3] [nM]	EC50 [2, 4] [nM]
Cc1nc(-c2ccc(-c3ccc(O[C@H]4C[C@@H]5CCC[C@@H](N5)[C@H]4F)nn3)c(O)c2)cs1 (single isomer, unassigned) [71-ENT1]	16 to 50	47	60	4	4.96	18.6	16 to 50	16 to 50
Cn1cc(-c2ccc(-c3ccc(O[C@H]4C[C@@H]5CCC[C@@H](N5)[C@H]4F)nn3)c(O)c2)cn1 (single isomer, unassigned) [1-ENT2]	0.01 to 15	76	83	6	6.05	33.7	16 to 50	16 to 50
Cn1ccc2cc(-c3ccc(O[C@H]4C[C@@H]5CC[C@@H](N5)[C@H]4F)nn3)c(O)cc2c1=O (single isomer, unassigned) [126-ENT1]	16 to 50	100	95	14	3.5	48.3	101 to 500	51 to 100
Cn1cnc2cc(O)c(-c3ccc(O[C@@H]4C[C@@]5(C)CCC[C@](C)(N5)[C@@H]4F)nn3)cc2c1=O (single isomer, unassigned) [133-ENT2]	0.01 to 15	92	90	12	5.25	60.9	51 to 100	51 to 100
Cn1ccc(-c2ccc(-c3ccc(O[C@H]4C[C@@H]5CCC[C@@H](N5)[C@H]4F)nn3)c(O)c2)cc1=O (single isomer, unassigned) [54-ENT2]	16 to 50	101	107	34	1.8	61.9	16 to 50	16 to 50
Cn1ccc(-c2cc(O)c(-c3ccc(O[C@H]4C[C@@H]5CCC[C@@H](N5)[C@H]4F)nn3)cc2F)cc1=O (single isomer, unassigned) [58-ENT2]	0.01 to 15	83	90	47	1.17	55.1	16 to 50	16 to 50
Cn1ccc2cc(-c3ccc(O[C@@H]4C[C@H]5CC[C@H](N5)[C@@H]4F)nn3)c(O)cc2c1=O (single isomer, unassigned) [126-ENT2]	101 to 500	93	92	13	3.51	45.5	501 to 10000	101 to 500
Cn1cc(-c2cc(O)c(-c3ccc(O[C@@H]4C[C@H]5CC[C@H](N5)[C@@H]4F)nn3)cc2F)cn1 (single isomer, unassigned) [61-ENT1]	16 to 50	43	79	3	4.83	13.8	16 to 50	0.01 to 15
Oc1cc(-c2ccn3ccnc3c2)ccc1-c1ccc(O[C@@H]2C[C@H]3CCC[C@H](N3)[C@@H]2F)nn1 (single isomer, unassigned) [83-ENT1]	101 to 500	48	64	23	1.05	23.8	501 to 10000	501 to 10000
Cn1cc(-c2cc(O)c(-c3ccc(O[C@H]4C[C@@H]5CCC[C@@H](N5)[C@H]4F)nn3)cc2Cl)cn1 (single isomer, unassigned) [120-ENT2]	51 to 100	28	71	7	4.47	30.2	51 to 100	16 to 50
C[C@]12CCC[C@](C)(N1)[C@H](F)[C@H](Oc1ccc(-c3ccc(-c4cn[nH]c4)cc3O)nn1)C2 (single isomer, unassigned) [147-ENT2]	0.01 to 15	71	80	13	4.46	58.1	0.01 to 15	0.01 to 15
Oc1cc(-c2cn[nH]c2)ccc1-c1ccc(O[C@H]2C[C@@H]3CCC[C@@H](N3)[C@H]2F)nn1 (single isomer, unassigned) [40-ENT1]	0.01 to 15	83	85	19	2.67	49.9	0.01 to 15	0.01 to 15
Cn1cc(-c2ccc(-c3ccc(O[C@@H]4C[C@H]5CCC[C@H](N5)[C@@H]4F)nn3)c(O)c2)cn1 (single isomer, unassigned) [1-ENT1]	0.01 to 15	85	84	6	6.16	37.9	16 to 50	16 to 50
Cn1cc(-c2ccc(-c3ccc(O[C@@H]4C[C@H]5CCC[C@H](N5)[C@@H]4F)nn3)c(O)c2F)cn1 (single isomer, unassigned) [119-ENT1]	16 to 50	56	80	10	3.4	33	16 to 50	16 to 50
Oc1cc(-c2cn[nH]c2)ccc1-c1ccc(O[C@@H]2C[C@H]3C[C@H](F)C[C@@H](C2)N3)nn1 [compound 113, 2-(6-(((1R,3r,5S,7s)-7-fluoro-9-azabicyclo[3.3.1]nonan-3-yl)oxy)pyridazin-3-yl)-5-(1H-pyrazol-4-yl)phenol]	0.01 to 15	86	88	54	1.01	54.2	0.01 to 15	0.01 to 15
Oc1cc(-c2nnco2)ccc1-c1ccc(O[C@H]2C[C@@H]3CCC[C@@H](N3)[C@H]2F)nn1 (single isomer, unassigned) [117-ENT2]	16 to 50	78	93	5	7.22	37.9	101 to 500	101 to 500
Oc1cc(-c2cn[nH]c2)ccc1-c1ccc(O[C@H]2C[C@@H]3CC[C@@H](N3)[C@H]2F)nn1 (single isomer, unassigned) [42-ENT1]	0.01 to 15	75	84	12	3.39	42.4	0.01 to 15	0.01 to 15
Cn1ccc2cc(-c3ccc(O[C@@H]4C[C@@]5(C)CC[C@](C)(N5)[C@@H]4F)nn3)c(O)cc2c1=O (single isomer, unassigned) [127-ENT2]	16 to 50	89	103	6	9.29	55.3	51 to 100	16 to 50
Cn1cc(-c2cc(O)c(-c3ccc(O[C@H]4C[C@@H]5CC[C@@H](N5)[C@H]4F)nn3)cc2F)cn1 (single isomer, unassigned) [61-ENT2]	0.01 to 15	36	71	3	4.5	12.2	16 to 50	0.01 to 15
Cn1ccc2cc(-c3ccc(O[C@@H]4C[C@@]5(C)CCC[C@](C)(N5)[C@@H]4F)nn3)c(O)cc2c1=O (single isomer, unassigned) [156-ENT1]	0.01 to 15	86	90	11	4.79	52.6	16 to 50	16 to 50
Cn1ccc(-c2cc(O)c(-c3ccc(O[C@@H]4C[C@H]5CCC[C@H](N5)[C@@H]4F)nn3)cc2F)cc1=O (single isomer, unassigned) [58-ENT1]	0.01 to 15	97	103	49	0.92	45.1	16 to 50	16 to 50
